We go through 77 sequences from the supplement of paper PMC11208160.

This series is described as follows: recombinant barcode read abundance after kanamycin selection (control-corrected) (log10(CPM+1)); higher = more efficient recombination; sequences stand for … in AGTGCAGAGAAAATCGGCCAGTTTTCTCTGCCTGCAGTCCGCATGCCGT…AGATTTATGCAGCGGACTGCCTTTCTCCCAAAGTGATAAACCGGACAGTATCATGGACCGGTTTTCCCGGTAATCCGTATTTGCAAGGTTGGTTTCACT; site = the 11-nt target. The gist of the method:
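Recombination efficiency comes from barcode counts at recombinant junctions, converted to counts per million, averaged and corrected against the control. Values appear as log10(CPM+1). They were obtained from a pooled E. coli screen in which each oligo paired a target with an IS621 bridge RNA target-binding loop, and cells were plated in duplicate on chloramphenicol/ampicillin LB agar or on chloramphenicol/ampicillin/kanamycin with 0.1 mM IPTG.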
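Note: IS621 recombinase and bridge RNA in Escherichia coli cells.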

Regarding “ATAAATCCTTGGGTTCTAACCTGTTGCCT (site CTAAATCCTAG)”, the “recombinant barcode read abundance (log10)” value stood at 0.126.
In the case of “ATAAATCCTTGGGTTCTAACCTGTTGCCT (site GTAAATCCTAG)” it was 0.0609; in that of “ATAAATCCTTGGGTTCTAACCTGTTGCCT (site TTAAATCCTAG)”, 0.0804; in that of “ATAACTACTTGGGTTCTAACCTGTTGCCA (site ATAACTACTTG)”, 0.462.
In the case of “ATAACTACTTGGGTTCTAACCTGTTGCCA (site ATGTCTACTTG)” it was 0.299; in that of “ATACAATCTTGGGTTCTAACCTGTTGCCT (site ATACAATCTAG)”, 1.13.
The figure for “ATACAATCTTGGGTTCTAACCTGTTGCCT (site CTACAATCTAG)” is 0.127; for “ATACAATCTTGGGTTCTAACCTGTTGCCT (site GTACAATCTAG)” it is 0.0425.
For “ATACAATCTTGGGTTCTAACCTGTTGCCT (site TTACAATCTAG)”, the “recombinant barcode read abundance (log10)” value turned out to be 0.202.
Take “ATACCATCTTGGGTTCTAACCTGTTGCCT (site ATACCATCTAG)”: the “recombinant barcode read abundance (log10)” value came out at 0.031.
As for “ATACCATCTTGGGTTCTAACCTGTTGCCT (site ATCCCATCTAG)”, the “recombinant barcode read abundance (log10)” value was 0.173.
On to “ATACCATCTTGGGTTCTAACCTGTTGCCT (site ATGCCATCTAG)”, for which the “recombinant barcode read abundance (log10)” value was determined as 0.855.
The figure for “ATACCATCTTGGGTTCTAACCTGTTGCCT (site ATTCCATCTAG)” is 0.34; for “ATACGGACTTGGGTTCTAACCTGTTGCAG (site ATACGGACTCT)” it is 2.77; for “ATACGGACTTGGGTTCTAACCTGTTGCAG (site ATATGTACTCT)” it is 0.198.
The figure for “ATACGTTCTTGGGTTCTAACCTGTTGCAT (site ATACGTTCTAT)” is 1.12.
The figure for “ATACGTTCTTGGGTTCTAACCTGTTGCAT (site CAGGTCCCTCG)” is 0.354; for “ATACTAACTTGGGTTCTAACCTGTTGCCT (site AAACTAACTAG)” it is 0.0718; for “ATACTAACTTGGGTTCTAACCTGTTGCCT (site ACACTAACTAG)” it is 0.477.
Regarding “ATACTAACTTGGGTTCTAACCTGTTGCCT (site AGACTAACTAG)”, the “recombinant barcode read abundance (log10)” value stood at 0.0472.
In the case of “ATACTAACTTGGGTTCTAACCTGTTGCCT (site ATACTAACTAG)” it was 1.7; in that of “ATAGAGTCTTGGGTTCTAACCTGTTGCTT (site AGAGAGTCTAA)”, 0.352; in that of “ATAGAGTCTTGGGTTCTAACCTGTTGCTT (site ATAGAGTCTAA)”, 2.52.
In the case of “ATAGCAACTTGGGTTCTAACCTGTTGCCT (site ATAGCAACTAG)” it was 0.64; in that of “ATAGCAACTTGGGTTCTAACCTGTTGCCT (site ATAGCCACTAG)”, 0.11; in that of “ATAGCAACTTGGGTTCTAACCTGTTGCCT (site ATAGCGACTAG)”, 0.0185.
As to “ATAGCAACTTGGGTTCTAACCTGTTGCCT (site ATAGCTACTAG)”, the “recombinant barcode read abundance (log10)” value is 0.0705.
Turning to “ATAGCTACTTGGGTTCTAACCTGTTGCCT (site ATAGCAACTAG)”, the “recombinant barcode read abundance (log10)” value stood at 0.142.
In the case of “ATAGCTACTTGGGTTCTAACCTGTTGCCT (site ATAGCCACTAG)” it was 0.248; in that of “ATAGCTACTTGGGTTCTAACCTGTTGCCT (site ATAGCGACTAG)”, 0.0534.
In the case of “ATAGCTACTTGGGTTCTAACCTGTTGCCT (site ATAGCTACTAG)” it was 1.2; in that of “ATAGGACCTTGGGTTCTAACCTGTTGCCG (site ATAGGACCTCG)”, 2.36.
Consider “ATAGGACCTTGGGTTCTAACCTGTTGCCG (site ATAGGACCTTG)”, for which the “recombinant barcode read abundance (log10)” value worked out at 0.143.
In the case of “ATAGGTTCTTGGGTTCTAACCTGTTGCCT (site AAAGGTTCTAG)” it was 0.0456; in that of “ATAGGTTCTTGGGTTCTAACCTGTTGCCT (site ACAGGTTCTAG)”, 0.0769.
The figure for “ATAGGTTCTTGGGTTCTAACCTGTTGCCT (site AGAGGTTCTAG)” is 0.0854.
The figure for “ATAGGTTCTTGGGTTCTAACCTGTTGCCT (site ATAGGTTCTAG)” is 1.49.
For “ATATGGACTTGGGTTCTAACCTGTTGCTA (site ATAAGGACTTA)”, the “recombinant barcode read abundance (log10)” value stood at 0.65.
In the case of “ATATGGACTTGGGTTCTAACCTGTTGCTA (site ATACGGACTTA)”, the “recombinant barcode read abundance (log10)” value was 1.34.
Regarding “ATATGGACTTGGGTTCTAACCTGTTGCTA (site ATAGGGACTTA)”, the “recombinant barcode read abundance (log10)” value worked out at 0.159.
On to “ATATGGACTTGGGTTCTAACCTGTTGCTA (site ATATGGACTTA)”, for which the “recombinant barcode read abundance (log10)” value is 1.62.
The figure for “ATATGGGCTTGGGTTCTAACCTGTTGCCG (site ATATGAGCTCG)” is 0.369; for “ATATGGGCTTGGGTTCTAACCTGTTGCCG (site ATATGCGCTCG)” it is 0.0627.
In the case of “ATATGGGCTTGGGTTCTAACCTGTTGCCG (site ATATGGGCTCG)” it was 1.52; in that of “ATATGGGCTTGGGTTCTAACCTGTTGCCG (site ATATGTGCTCG)”, 0.1.
In the case of “ATATTGCCTTGGGTTCTAACCTGTTGCCT (site ATATTGCCTAG)” it was 1.67.
Turning to “ATATTGCCTTGGGTTCTAACCTGTTGCCT (site ATATTGTCTTG)”, the “recombinant barcode read abundance (log10)” value was determined as 0.0732.
The figure for “ATATTTCCTTGGGTTCTAACCTGTTGCCT (site AAATTTCCTAG)” is 0.0146; for “ATATTTCCTTGGGTTCTAACCTGTTGCCT (site ACATTTCCTAG)” it is 0.0246.
In the case of “ATATTTCCTTGGGTTCTAACCTGTTGCCT (site AGATTTCCTAG)” it was 0.163; in that of “ATATTTCCTTGGGTTCTAACCTGTTGCCT (site ATATTTCCTAG)”, 0.785; in that of “ATCCAGCCTTGGGTTCTAACCTGTTGCCT (site ATCCAACCTAG)”, 1.16.
Consider “ATCCAGCCTTGGGTTCTAACCTGTTGCCT (site ATCCACCCTAG)”, for which the “recombinant barcode read abundance (log10)” value is 0.0824.
The figure for “ATCCAGCCTTGGGTTCTAACCTGTTGCCT (site ATCCAGCCTAG)” is 1.7; for “ATCCAGCCTTGGGTTCTAACCTGTTGCCT (site ATCCATCCTAG)” it is 0.0724.
The figure for “ATCCCACCTTGGGTTCTAACCTGTTGCGG (site ATACTACCTCC)” is 0.0321; for “ATCCCACCTTGGGTTCTAACCTGTTGCGG (site ATCCCACCTCC)” it is 1.89; for “ATCCTAGCTTGGGTTCTAACCTGTTGCCG (site ATCCTAGCTCG)” it is 1.58.
Regarding “ATCCTAGCTTGGGTTCTAACCTGTTGCCG (site TTCCTAGCTTG)”, the “recombinant barcode read abundance (log10)” value amounted to 0.299.
The figure for “ATCGCTCCTTGGGTTCTAACCTGTTGCCT (site AACGCTCCTAG)” is 0.128.
In the case of “ATCGCTCCTTGGGTTCTAACCTGTTGCCT (site ACCGCTCCTAG)”, the “recombinant barcode read abundance (log10)” value came out at 0.115.
In the case of “ATCGCTCCTTGGGTTCTAACCTGTTGCCT (site AGCGCTCCTAG)” it was 0.122; in that of “ATCGCTCCTTGGGTTCTAACCTGTTGCCT (site ATCGCTCCTAG)”, 2.12; in that of “ATCGGATCTTGGGTTCTAACCTGTTGCCT (site ATCGGAACTAG)”, 0.195.
In the case of “ATCGGATCTTGGGTTCTAACCTGTTGCCT (site ATCGGACCTAG)” it was 0.0656.
Turning to “ATCGGATCTTGGGTTCTAACCTGTTGCCT (site ATCGGAGCTAG)”, the “recombinant barcode read abundance (log10)” value was found to be 0.232.
The figure for “ATCGGATCTTGGGTTCTAACCTGTTGCCT (site ATCGGATCTAG)” is 0.678; for “ATCGGCCCTTGGGTTCTAACCTGTTGCTG (site ATCGGCCCTCA)” it is 2.07; for “ATCGGCCCTTGGGTTCTAACCTGTTGCTG (site GTGGGCCCTCA)” it is 0.0497.
“ATCTAAACTTGGGTTCTAACCTGTTGCCT (site ATCTAAACTAG)”: the “recombinant barcode read abundance (log10)” value was determined as 0.842.
The figure for “ATCTAAACTTGGGTTCTAACCTGTTGCCT (site CGAGTCCCTCT)” is 0.105.
The figure for “ATCTACTCTTGGGTTCTAACCTGTTGCCT (site ATATACTCTCG)” is 0.382; for “ATCTACTCTTGGGTTCTAACCTGTTGCCT (site ATCTACTCTAG)” it is 1.56; for “ATCTATACTTGGGTTCTAACCTGTTGCCT (site ATCTATACTAG)” it is 0.821.
The figure for “ATCTATACTTGGGTTCTAACCTGTTGCCT (site GGACGAGCTCA)” is 0.0107.
Consider “ATCTATCCTTGGGTTCTAACCTGTTGCAT (site ACCTAACCTAT)”, for which the “recombinant barcode read abundance (log10)” value is 0.179.
Turning to “ATCTATCCTTGGGTTCTAACCTGTTGCAT (site ATCTATCCTAT)”, the “recombinant barcode read abundance (log10)” value is 0.198.
